According to the NIST ThermoML archive (doi:10.1021/acs.jced.6b00455):
Numbers after ± are expanded uncertainties.

Assay: mn = molality of the nth substance listed, in mol/kg
Conditions: 101 kPa, Liquid, Alternating current cell with electrodes

C[N+](C)(C)CCO.O=C([O-])C(F)(F)C(F)(F)C(F)(F)C(F)(F)C(F)(F)F [(2-hydroxyethyl)trimethylammonium perfluorohexanoate] + O
Conditions	electrical conductivity [S/m]
293.15 K, m1 = 0.000375	0.0022 ± 0.0001
293.15 K, m1 = 0.000696	0.0041 ± 0.0003
293.15 K, m1 = 0.001138	0.0071 ± 0.0004
293.15 K, m1 = 0.001477	0.0092 ± 0.0006
293.15 K, m1 = 0.001847	0.0114 ± 0.0007
293.15 K, m1 = 0.002373	0.0146 ± 0.0009
293.15 K, m1 = 0.00271	0.0166 ± 0.001
293.15 K, m1 = 0.003146	0.0191 ± 0.0011
293.15 K, m1 = 0.003565	0.0215 ± 0.0013
293.15 K, m1 = 0.003898	0.0234 ± 0.0014
293.15 K, m1 = 0.004204	0.0251 ± 0.0015
293.15 K, m1 = 0.004601	0.0273 ± 0.0016
293.15 K, m1 = 0.00507	0.03 ± 0.0018
293.15 K, m1 = 0.00539	0.0318 ± 0.0019
293.15 K, m1 = 0.005815	0.034 ± 0.002
293.15 K, m1 = 0.006239	0.0364 ± 0.0022
293.15 K, m1 = 0.00662	0.0384 ± 0.0023
293.15 K, m1 = 0.007072	0.0408 ± 0.0024
293.15 K, m1 = 0.007377	0.0425 ± 0.0026
293.15 K, m1 = 0.007726	0.0443 ± 0.0027
293.15 K, m1 = 0.008233	0.047 ± 0.0028
293.15 K, m1 = 0.008702	0.0493 ± 0.003
293.15 K, m1 = 0.009174	0.0517 ± 0.0031
293.15 K, m1 = 0.009518	0.0535 ± 0.0032
293.15 K, m1 = 0.009916	0.0557 ± 0.0033
293.15 K, m1 = 0.01043	0.0585 ± 0.0035
293.15 K, m1 = 0.01075	0.0607 ± 0.0036
293.15 K, m1 = 0.01135	0.0637 ± 0.0038
293.15 K, m1 = 0.01181	0.0666 ± 0.004
293.15 K, m1 = 0.01223	0.0687 ± 0.0041
298.15 K, m1 = 0.00055	0.0043 ± 0.0003
298.15 K, m1 = 0.001005	0.0076 ± 0.0005
298.15 K, m1 = 0.001703	0.0126 ± 0.0008
298.15 K, m1 = 0.002219	0.0163 ± 0.001
298.15 K, m1 = 0.002829	0.0204 ± 0.0012
298.15 K, m1 = 0.003309	0.0241 ± 0.0014
298.15 K, m1 = 0.003767	0.0269 ± 0.0016
298.15 K, m1 = 0.00423	0.0305 ± 0.0018
298.15 K, m1 = 0.004871	0.0338 ± 0.002
298.15 K, m1 = 0.005471	0.0376 ± 0.0023
298.15 K, m1 = 0.005971	0.0408 ± 0.0024
298.15 K, m1 = 0.006435	0.0436 ± 0.0026
298.15 K, m1 = 0.007097	0.0477 ± 0.0029
298.15 K, m1 = 0.007791	0.0519 ± 0.0031
298.15 K, m1 = 0.008432	0.0557 ± 0.0033
298.15 K, m1 = 0.008992	0.0589 ± 0.0035
298.15 K, m1 = 0.009929	0.0652 ± 0.0039
298.15 K, m1 = 0.01068	0.0683 ± 0.0041
298.15 K, m1 = 0.0118	0.0747 ± 0.0045
298.15 K, m1 = 0.01243	0.0781 ± 0.0047
298.15 K, m1 = 0.01316	0.0821 ± 0.0049
298.15 K, m1 = 0.01446	0.0892 ± 0.0054
303.15 K, m1 = 0.000466	0.0041 ± 0.0003
303.15 K, m1 = 0.000808	0.0072 ± 0.0004
303.15 K, m1 = 0.001191	0.0104 ± 0.0006
303.15 K, m1 = 0.001576	0.0137 ± 0.0008
303.15 K, m1 = 0.002245	0.0181 ± 0.0011
303.15 K, m1 = 0.002642	0.0212 ± 0.0013
303.15 K, m1 = 0.00302	0.0242 ± 0.0015
303.15 K, m1 = 0.003455	0.0274 ± 0.0016
303.15 K, m1 = 0.003946	0.0311 ± 0.0019
303.15 K, m1 = 0.004412	0.0342 ± 0.0021
303.15 K, m1 = 0.004852	0.0375 ± 0.0023
303.15 K, m1 = 0.00528	0.0407 ± 0.0024
303.15 K, m1 = 0.005774	0.0442 ± 0.0027
303.15 K, m1 = 0.006137	0.0465 ± 0.0028
303.15 K, m1 = 0.006412	0.0486 ± 0.0029
303.15 K, m1 = 0.006786	0.0514 ± 0.0031
303.15 K, m1 = 0.00737	0.0557 ± 0.0033
303.15 K, m1 = 0.007781	0.0587 ± 0.0035
303.15 K, m1 = 0.008049	0.0605 ± 0.0036
303.15 K, m1 = 0.008511	0.0638 ± 0.0038
303.15 K, m1 = 0.008888	0.0663 ± 0.004
303.15 K, m1 = 0.009262	0.0691 ± 0.0041
303.15 K, m1 = 0.009766	0.0727 ± 0.0044
303.15 K, m1 = 0.01022	0.0763 ± 0.0046
308.15 K, m1 = 0.00032	0.0028 ± 0.0002
308.15 K, m1 = 0.000664	0.006 ± 0.0004
308.15 K, m1 = 0.000979	0.0086 ± 0.0005
308.15 K, m1 = 0.001217	0.0105 ± 0.0006
308.15 K, m1 = 0.001449	0.0125 ± 0.0008
308.15 K, m1 = 0.001666	0.0142 ± 0.0009
308.15 K, m1 = 0.002016	0.017 ± 0.001
308.15 K, m1 = 0.00224	0.0188 ± 0.0011
308.15 K, m1 = 0.002547	0.0213 ± 0.0013
308.15 K, m1 = 0.002821	0.0235 ± 0.0014
308.15 K, m1 = 0.003227	0.0266 ± 0.0016
308.15 K, m1 = 0.003473	0.0285 ± 0.0017
308.15 K, m1 = 0.003909	0.0318 ± 0.0019
308.15 K, m1 = 0.004306	0.0348 ± 0.0021
308.15 K, m1 = 0.004503	0.0365 ± 0.0022
308.15 K, m1 = 0.004751	0.0383 ± 0.0023
308.15 K, m1 = 0.005079	0.0408 ± 0.0024
308.15 K, m1 = 0.005473	0.0437 ± 0.0026
308.15 K, m1 = 0.005677	0.0452 ± 0.0027
308.15 K, m1 = 0.005898	0.0468 ± 0.0028
308.15 K, m1 = 0.006135	0.0484 ± 0.0029
308.15 K, m1 = 0.006462	0.0505 ± 0.003
308.15 K, m1 = 0.006775	0.0522 ± 0.0031
308.15 K, m1 = 0.006992	0.0537 ± 0.0032
308.15 K, m1 = 0.007243	0.0556 ± 0.0033
308.15 K, m1 = 0.00746	0.0572 ± 0.0034
308.15 K, m1 = 0.007893	0.0603 ± 0.0036
308.15 K, m1 = 0.008273	0.063 ± 0.0038
308.15 K, m1 = 0.008535	0.0647 ± 0.0039
308.15 K, m1 = 0.008941	0.0676 ± 0.0041
308.15 K, m1 = 0.009261	0.0697 ± 0.0042
308.15 K, m1 = 0.009516	0.0711 ± 0.0043
308.15 K, m1 = 0.009886	0.0734 ± 0.0044
308.15 K, m1 = 0.01025	0.076 ± 0.0046
313.15 K, m1 = 0.00043	0.0042 ± 0.0003
313.15 K, m1 = 0.000832	0.008 ± 0.0005
313.15 K, m1 = 0.001262	0.012 ± 0.0007
313.15 K, m1 = 0.001627	0.0157 ± 0.0009
313.15 K, m1 = 0.002033	0.0192 ± 0.0012
313.15 K, m1 = 0.00239	0.0224 ± 0.0013
313.15 K, m1 = 0.002657	0.0247 ± 0.0015
313.15 K, m1 = 0.002904	0.0268 ± 0.0016
313.15 K, m1 = 0.003178	0.0292 ± 0.0018
313.15 K, m1 = 0.003443	0.0314 ± 0.0019
313.15 K, m1 = 0.003771	0.0349 ± 0.0021
313.15 K, m1 = 0.004146	0.038 ± 0.0023
313.15 K, m1 = 0.004519	0.0412 ± 0.0025
313.15 K, m1 = 0.004784	0.0433 ± 0.0026
313.15 K, m1 = 0.005179	0.0467 ± 0.0028
313.15 K, m1 = 0.005436	0.0487 ± 0.0029
313.15 K, m1 = 0.005698	0.051 ± 0.0031
313.15 K, m1 = 0.006109	0.0544 ± 0.0033
313.15 K, m1 = 0.006403	0.0567 ± 0.0034
313.15 K, m1 = 0.006614	0.0584 ± 0.0035
313.15 K, m1 = 0.006889	0.0606 ± 0.0036
313.15 K, m1 = 0.007247	0.0637 ± 0.0038
313.15 K, m1 = 0.007657	0.0669 ± 0.004
313.15 K, m1 = 0.008021	0.0699 ± 0.0042
313.15 K, m1 = 0.008353	0.0725 ± 0.0044
313.15 K, m1 = 0.0086	0.0744 ± 0.0045
313.15 K, m1 = 0.008852	0.0763 ± 0.0046
313.15 K, m1 = 0.009114	0.0783 ± 0.0047
313.15 K, m1 = 0.009356	0.0803 ± 0.0048
313.15 K, m1 = 0.009621	0.0823 ± 0.0049
313.15 K, m1 = 0.009883	0.0842 ± 0.0051
313.15 K, m1 = 0.01024	0.0869 ± 0.0052
313.15 K, m1 = 0.01049	0.0888 ± 0.0053
